From US20240239772A1, “PROTEASE INHIBITORS AND METHODS OF USE” (The Cleveland Clinic Foundation, priority 2021, published 2024)
Like-named read-outs stand apart in the source and are kept apart here.

Key:
SARS-CoV-2 [1] = experiment: microbe, parasite or virus in culture; type: cell-based; conditions: read-out: CPE Inhibition Assay EC50
SARS-CoV-2 [2] = experiment: microbe, parasite or virus in culture; type: cell-based
SARS-CoV-2 3CLpro = SARS-CoV-2 3CLpro (Severe acute respiratory syndrome coronavirus 2 (2019-nCoV) (SARS-CoV-2), UniProt P0DTD1); experiment: biochemical; type: biochemical; conditions: read-out: SARS-CoV-2 IC50
SARS-CoV-1 3CLpro = SARS-CoV-1 3CLpro (Severe acute respiratory syndrome coronavirus (SARS-CoV), UniProt P0C6X7); type: biochemical
[3] = Severe acute respiratory syndrome coronavirus 2, Vero C1008, 68 h
[4] = Severe acute respiratory syndrome coronavirus 2, Vero C1008, read-out: Plaque Reduction Assay EC50

Structure (SMILES) | EC50 (SARS-CoV-2 [1]; [3]) | EC50 (SARS-CoV-2 [2]; [4]) | IC50 (SARS-CoV-2 3CLpro) | IC50 (SARS-CoV-1 3CLpro) | EC50 (SARS-CoV-2 [2]; Severe acute respiratory syndrome coronavirus 2, Vero C1008, Vero E6 ACE2 cells, approximately 50 PFUs SARS-CoV-2, read-out: Plaque Reduction Assay EC50) | EC50 (SARS-CoV-2 [1]; Severe acute respiratory syndrome coronavirus 2, Vero C1008, Vero E6 ACE2 cells, 100 TCID50 SARS-CoV-2, 68 h after infection)
O=C(Cn1nnc2ccccc21)N(Cc1ccsc1)c1ccc(-c2cccnc2)cc1 [Compound 17b, 2-(1H-benzo[d][1,2,3]triazol-1-yl)-N-(4-(pyridin-3-yl)phenyl)-N-(thiophen-3-ylmethyl)acetamide, reference compound] | 12.1 ± 0.31 µM | 14.6 ± 1.22 µM |  |  |  | 
O=C(Cn1nnc2ccccc21)N(Cc1ccsc1)c1ccc(-c2c[nH]cn2)cc1 [Compound 21, 2-(Benzotriazol-1-yl)-N-[4-(1H-imidazol-4-yl)phenyl]-N-(3-thienylmethyl)acetamide] | 1.74 ± 0.19 µM | 1.75 ± 0.25 µM | 0.06 ± 0.01 µM |  |  | 
O=C(Cn1nnc2ccccc21)N(CC1CCOC1)c1ccc(-c2cccnc2)cc1 (stereo not shown) [Compound 26, 2-(1H-Benzo[d][1,2,3]triazol-1-yl)-N-(4-(pyridin-3-yl)phenyl)-N-((tetrahydrofuran-3-yl)methyl)acetamide] |  |  | 23 ± 1.38 µM | 20.5 ± 1.59 µM |  | 
O=C(Cn1nnc2ccccc21)N(Cc1cccc(Cl)c1)c1ccc(-c2cccnc2)cc1 [Compound 28, 2-(Benzotriazol-1-yl)-N-[(3-chlorophenyl)methyl]-N-[4-(3-pyridyl)phenyl]acetamide] | 7.61 ± 1.43 µM | 11.1 ± 0.37 µM | 0.39 ± 0.11 µM |  |  | 
O=C(Cn1nnc2ccccc21)N(Cc1ccc(Cl)c(Cl)c1)c1ccc(-c2cccnc2)cc1 [Compound 30, 2-(Benzotriazol-1-yl)-N-[(3,4-dichlorophenyl)methyl]-N-[4-(3-pyridyl)phenyl]acetamide] |  |  | > 200 µM | > 200 µM |  | 
O=C(Cn1nnc2ccccc21)N(Cc1cc(F)cc(Cl)c1)c1ccc(-c2cccnc2)cc1 [Compound 31, 2-(Benzotriazol-1-yl)-N-[(3-chloro-5-fluoro-phenyl)methyl]-N-[4-(3-pyridyl)phenyl]acetamide] |  |  | 0.119 ± 0.005 µM | 0.074 ± 0.01 µM |  | 
O=C(Cn1nnc2ccccc21)N(Cc1cccc(Cl)c1)c1ccc(-c2ccc[nH]c2=O)cc1 [Compound 35, 2-(1H-Benzo[d][1,2,3]triazol-1-yl)-N-(3-chlorobenzyl)-N-(4-(2-oxo-1,2-dihydropyridin-3-yl)phenyl)acetamide] | 8.77 ± 1.14 µM |  | 0.746 ± 0.098 µM |  | 16.7 ± 2.44 µM | 
O=C(Cn1nnc2ccccc21)N(Cc1cccc(Cl)c1)c1ccc(-c2cn[nH]c2)cc1 [Compound 36, N-(4-(1H-Pyrazol-4-yl)phenyl)-2-(1H-benzo[d][1,2,3]triazol-1-yl)-N-(3-chlorobenzyl)acetamide] | 1.98 ± 0.24 µM | 3.31 ± 0.1 µM | 0.27 ± 0.067 µM |  |  | 
COc1cc(N(Cc2cccc(Cl)c2)C(=O)Cn2nnc3ccccc32)ccc1-c1cn[nH]c1 [Compound 37, 2-(Benzotriazol-1-yl)-N-[(3-chlorophenyl)methyl]-N-[3-methoxy-4-(1H-pyrazol-4-yl)phenyl]acetamide] | 2.93 ± 0.28 µM | 3.24 ± 0.27 µM | 0.328 ± 0.027 µM |  |  | 
COc1cc(-c2cn[nH]c2)ccc1N(Cc1cccc(Cl)c1)C(=O)Cn1nnc2ccccc21 [Compound 38, 2-(Benzotriazol-1-yl)-N-[(3-chlorophenyl)methyl]-N-[2-methoxy-4-(1H-pyrazol-4-yl)phenyl]acetamide] |  | 2.01 ± 0.49 µM | 0.197 ± 0.05 µM |  |  | 2.3 ± 0.33 µM
O=C(Cn1nnc2ccccc21)N(Cc1cccc(Cl)c1)c1ccc(-c2cn[nH]c2)nc1 [Compound 39, 2-(Benzotriazol-1-yl)-N-[(3-chlorophenyl)methyl]-N-[6-(1H-pyrazol-4-yl)-3-pyridyl]acetamide] | 3.81 ± 0.18 µM | 4.65 ± 0.11 µM | 0.333 ± 0.093 µM | 0.336 ± 0.065 µM |  | 
O=C(Cn1nnc2ccccc21)N(Cc1cccc(Cl)c1)c1ccc(-c2cn[nH]c2)cn1 [Compound 40, 2-(Benzotriazol-1-yl)-N-[(3-chlorophenyl)methyl]-N-[5-(1H-pyrazol-4-yl)-2-pyridyl]acetamide] | 1.91 ± 0.3 µM | 3.39 ± 0.21 µM | 0.171 ± 0.029 µM | 0.214 ± 0.063 µM |  | 
O=C(Cn1nnc2ccccc21)N(Cc1cc(F)cc(Cl)c1)c1ccc(C2CNC2)cc1 [Compound 121, N-[4-(azetidin-3-yl)phenyl]-2-(benzotriazol-1-yl)-N-[(3-chloro-5-fluoro-phenyl)methyl]acetamide] |  |  | 0.1 µM |  |  | 
O=C(Cn1nnc2ccccc21)N(Cc1cncc(F)c1)c1ccc(C2=CCNC2)cc1 [Compound 122, 2-(benzotriazol-1-yl)-N-[4-(2,5-dihydro-1H-pyrrol-3-yl)phenyl]-N-[(5-fluoro-3-pyridyl)methyl]acetamide] |  |  | 1.5 µM |  |  | 
CC(=O)NCc1ccc(N(Cc2cc(F)cc(F)c2)C(=O)Cn2nnc3ccccc32)cc1 [Compound 123, N-[4-(acetamidomethyl)phenyl]-2-(benzotriazol-1-yl)-N-[(3,5-difluorophenyl)methyl]acetamide] |  |  | 0.78 µM |  |  | 
NCc1ccc(N(Cc2cc(F)cc(F)c2)C(=O)Cn2nnc3ccccc32)cc1 [Compound 124, N-[4-(aminomethyl)phenyl]-2-(benzotriazol-1-yl)-N-[(3,5-difluorophenyl)methyl]acetamide] |  |  | 0.059 µM |  |  | 
O=C(Nc1ccc(N(Cc2ccsc2)C(=O)Cn2nnc3ccccc32)cc1)C1CC1 [ML300, N-(4-(2-(1H-benzo[d][1,2,3]triazol-1-yl)-N-(thiophen-3-ylmethyl)acetamido)phenyl)cyclopropanecarboxamide, reference compound] | 19.9 ± 6.32 µM | 28.2 ± 1.3 µM | 4.99 ± 0.62 µM |  |  | 
CCC(CC)COC(=O)[C@H](C)N[P@](=O)(OC[C@H]1O[C@@](C#N)(c2ccc3c(N)ncnn23)[C@H](O)[C@@H]1O)Oc1ccccc1 [Remdesivir, reference compound] | 0.34 ± 0.01 µM | 0.43 ± 0.06 µM |  |  |  | 
